Data reported in patent US12648946B2, “Combination of antibody-pyrrolobenzodiazepine derivative conjugate and PARP inhibitor” (DAIICHI SANKYO COMPANY, LIMITED, priority 2019, dated 2026).

Tested on: human pancreatic cancer cell line CFPAC-1
Experiment: Antitumor test (1), subcutaneous xenograft
Assay type: in vivo, mouse
Conditions: single administration, talazoparib 0.8 mg/kg oral for 5 days from Day 0, Day 35, CFPAC-1
Description: Mouse: Five- to six-week-old female BALB/c nude mice (Charles River Laboratories Japan, Inc.) were subjected to experiment. Assay and calculation formula: In all of the studies, the major axis and minor axis of a tumor were measured twice a week by using an electronic digital caliper ([…] Corp.), and the tumor volume (mm^3) was calculated. The calculation formula is as shown below. [formula] Each of the anti-CLDN6 antibody-drug conjugate ADC1, the anti-HER2 antibody-drug conjugate ADC2, and the anti-TROP2 antibody-drug conjugate ADC3 was diluted with ABS buffer (10 mM acetate buffer (pH 5.5), 5% sorbitol), and a liquid volume of 10 mL/kg was intravenously administered into the tail vein. […] LLC)/Dulbecco's Phosphate-Buffered Saline, and then a liquid volume of 10 mL/kg was intraperitoneally administered. […] LLC)/Dulbecco's Phosphate-Buffered Saline, and then a liquid volume of 10 mL/kg was orally administered. Niraparib was dissolved in DMSO, diluted with 0.5% methylcellulose, and then a liquid volume of 10 mL/kg was orally administered. The described method is common to Examples 34 to 37. […]

Cn1ncnc1[C@H]1c2n[nH]c(=O)c3cc(F)cc(c23)N[C@@H]1c1ccc(F)cc1 [talazoparib]
tumor growth inhibition (TGI): 17%
